Experiments:
[1] = molecular target: T1, Recombinant human LOXL2 (lysyl oxidase like 2) (Homo sapiens, UniProt Q9Y4K0); test: LOXL2 inhibition assay, fluorometric (cadaverine / HRP / Amplex Red); type: biochemical; conditions: recombinant human LOXL2 130 nM; 30 min preincubation at 37° C.; 2.5 mM cadaverine; read-out: Activity Range LOXL2
T1 construct: purchased R&D systems
T1 sequence (Q9Y4K0 26-774): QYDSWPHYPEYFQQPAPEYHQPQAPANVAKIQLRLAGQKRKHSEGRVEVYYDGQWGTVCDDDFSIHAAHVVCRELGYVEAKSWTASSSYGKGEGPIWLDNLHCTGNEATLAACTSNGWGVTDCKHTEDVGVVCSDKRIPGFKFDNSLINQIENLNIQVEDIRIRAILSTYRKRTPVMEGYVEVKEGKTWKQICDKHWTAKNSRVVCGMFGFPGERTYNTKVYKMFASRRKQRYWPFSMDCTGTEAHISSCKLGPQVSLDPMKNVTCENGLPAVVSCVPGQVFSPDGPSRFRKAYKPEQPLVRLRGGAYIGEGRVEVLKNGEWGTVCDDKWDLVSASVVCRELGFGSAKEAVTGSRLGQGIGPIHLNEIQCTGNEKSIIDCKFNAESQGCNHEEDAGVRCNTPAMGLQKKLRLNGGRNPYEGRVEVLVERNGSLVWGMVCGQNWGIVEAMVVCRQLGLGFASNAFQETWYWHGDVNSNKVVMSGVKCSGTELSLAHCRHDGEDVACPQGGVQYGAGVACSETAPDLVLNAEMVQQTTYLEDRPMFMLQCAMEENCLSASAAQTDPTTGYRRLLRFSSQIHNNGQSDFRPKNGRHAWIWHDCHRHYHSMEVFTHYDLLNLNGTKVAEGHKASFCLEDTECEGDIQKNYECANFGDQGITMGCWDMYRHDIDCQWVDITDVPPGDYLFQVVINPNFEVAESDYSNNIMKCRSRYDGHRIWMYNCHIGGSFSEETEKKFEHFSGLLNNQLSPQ
Description: The ability of compounds to inhibit one or more of the lysyl oxidases LOXL2 and/or LOXL3 was determined using a fluorometric assay. This assay measures the activity of lysyl oxidases by coupling the reaction with horseradish peroxidase-catalyzed […]. The activity assay protocol uses cadaverine as substrate that releases hydrogen peroxide upon transformation by the specific LOX family enzyme present in the sample. Hydrogen peroxide is in turn detected using a red fluorescence substrate for HRP-coupled reactions (Amplex Red Enzyme Assays, Thermo Scientific Fisher). This leads to increase in fluorescence that can be easily detected at Ex/Em=540/590 nm in a fluorescence microplate reader.
Recombinant human LOXL2 (lysyl oxidase like 2) and recombinant human LOXL3 (lysyl oxidase like 3) were purchased from R&D systems and assays were performed in 1.2 M urea, 50 mM sodium borate buffer pH 8.0, and 10 mM CaCl.
5 μl of freshly prepared reaction buffer were delivered to reaction wells. Compounds were resuspended in 100% DMSO at 10 mM and delivered into buffer using acoustic technology (Echo550; nanoliter range). A 3× solution of LOXL2 or LOXL3 in reaction buffer was prepared (“enzyme solution”) and 5 μL of enzyme solution was added into the reaction wells. Buffer only was added to column 1 for no protein control. Reactions were incubated for 30 minutes at 37° C. A 3× mixture of cadaverine, Amplex Red, and HRP (“Substrate/Detection Mix) was prepared and subsequently 5 μL of the mixture added to each reaction well. Progress of reactions was monitored for 60 minutes at 37° C. using Clariostar plate reader (ex 530-12, ems 600-40). For all activity assays, pan-LOX inhibitor CCT365623 (Tang et al, 2017) and LOXL2/LOXL3 inhibitor PAT-1251 (PharmaKea) were included as standards.
For the data analysis, the slope of the linear portion of the progress curve was calculated using Clariostar software. Typical analysis interval was between 8-30 min, but varied between experiments. The background-subtracted signals (No protein wells are considered as background) were converted to % activity relative to DMSO controls. Data was analyzed using GraphPad Prism 4 with “sigmoidal dose-response (variable slope)”; 4 parameters with Hill Slope. Constraints: Bottom=Constant equal to 0. Top=Must be less than 120.

[2] = molecular target: T2, Bovine lysyl oxidase (LOX) (Bos taurus, UniProt P33072); test: LOX inhibition assay, fluorometric (cadaverine / HRP / Amplex Red); type: biochemical; conditions: LOX extracted from bovine tendon, 30 min preincubation at 37° C., 5 mM cadaverine; for IC50: read-out: Activity Range LOX
T2 construct: from tissue; host or cells: adult bovine tendon
T2 sequence (P33072 170-418): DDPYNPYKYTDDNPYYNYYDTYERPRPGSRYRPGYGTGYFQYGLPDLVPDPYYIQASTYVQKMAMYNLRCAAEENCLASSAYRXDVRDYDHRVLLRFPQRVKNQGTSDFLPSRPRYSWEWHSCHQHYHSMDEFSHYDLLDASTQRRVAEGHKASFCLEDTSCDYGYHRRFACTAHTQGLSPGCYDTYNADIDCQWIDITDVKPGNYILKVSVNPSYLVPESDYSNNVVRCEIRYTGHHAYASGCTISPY
Description: The ability of compounds to inhibit prototypic LOX was determined using a fluorometric assay. This assay measures the activity of lysyl oxidases by coupling the reaction with horseradish peroxidase-catalyzed […]. The activity assay protocol uses cadaverine as substrate that releases hydrogen peroxide upon transformation by prototypic LOX enzyme present in the sample. Hydrogen peroxide was in turn detected using a red fluorescence substrate for HRP-coupled reactions (Amplex Red Enzyme Assays, Thermo Scientific Fisher). This lead to an increase in fluorescence that can be easily detected at Ex/Em=540/590 nm in a fluorescence microplate
Bovine lysyl oxidase (LOX) was extracted by adapting the methodology from [Kagan et al. 1979 and Borel et al. 2001.] from bovine tendon: Frozen adult bovine tendon was placed in room temperature water to defrost, and then membranes were removed and the remaining tissue cut into 1 cm pieces. The material was first passed through a course mesh meat grinder, and this mince was passed through a fine mesh grinder. The mince was homogenized in 10 v/w of buffer (16 mM sodium phosphate buffer pH 7.8, 400 mM NaCl) using a Waring blender. The homogenate was centrifuged at 15,000×g for 15 min at 4° C. After centrifugation, the supernatant was discarded and the pellets resuspended in 10 volumes of the same buffer. The mixture was blended again and centrifuged with the same settings. This time the pellets were blended in 3 volumes of extraction buffer (16 mM sodium phosphate buffer pH 7.8) and left to incubate at 4° C. for 2 h. After this time, the slurry was centrifuged with the same settings as described above. The supernatant was used in an ultrafiltration step to remove large proteins by size exclusion through a 30 kDalton filter (EMD Millipore). The filtrate was mixed with DEAE Sephadex (GE Healthcare), or passed over a MonoQ FPLC column. After two washes, one in 16 mM sodium phosphate buffer pH 7.8, 380 mM NaCl, and another in 16 mM sodium phosphate buffer pH 7.8, the proteins were eluted with 16 mM sodium phosphate pH 7.8, 10 μM CuSO4, and 4 M urea. Fractions containing Lox activity were collected and stored frozen at −70° C.
Final concentration in the LOX assay is shown in Table 6 below and performed in a total volume of […].
7 μl of freshly prepared reaction buffer were delivered to reaction wells. Compounds were resuspended in 100% DMSO at 10 mM and delivered into buffer using acoustic technology (Echo550; nanoliter range). A 2.85× solution of LOX protein in reaction buffer was prepared (“LOX solution”) and 7 μl of LOX solution was added into the reaction wells. Buffer only was added to column 1 for no protein control. Reactions were incubated for 30 minutes at 37° C. A 3.33× mixture of cadaverine, Amplex Red, and HRP (“Substrate/Detection Mix) was prepared and subsequently 6 μL of the mixture was added to each reaction well. Progress of reactions was monitored for 120 minutes at 37° C. using Clariostar plate reader (ex530-12, ems 600-40). For all activity assays, pan-LOX inhibitor CCT365623 (Tang et al, 2017) and LOXL2/LOXL3 inhibitor PAT-1251 (PharmaKea) were included as standards.
The slope of the linear portion of the progress curve was calculated using Clariostar software. Typical analysis interval was between 20-50 min, but varied between experiments. The background subtracted signals (No protein wells were considered as background) were converted to % activity relative to DMSO controls. Data was analyzed using GraphPad Prism 4 with “sigmoidal dose-response (variable slope)”; 4 parameters with Hill Slope. Constraints: Bottom=Constant equal to 0. Top=Must be less than 120.

Question: Which results are given for `CS(=O)(=O)N1C[C@@H](c2ccccc2)C[C@H]1CS(=O)(=O)c1ccc(CN)cc1` (racemic) [Example 26, cis-(4-(((1-(Methylsulfonyl)-4-phenylpyrrolidin-2-yl)methyl)sulfonyl)phenyl)methanamine 2,2,2-trifluoroacetate]?
Answer: IC50 [1]: ≤ 500 nM; IC50 [2]: 1000 to 30000 nM

Question: How did the IC50 [1] turn out when `CS(=O)(=O)N1C[C@@H](c2ccccc2)C[C@H]1CS(=O)(=O)c1cccc(CN)c1` (racemic) [Example 27, cis-(3-(((1-(Methylsulfonyl)-4-phenylpyrrolidin-2-yl)methyl)sulfonyl)phenyl)methanamine 2,2,2-trifluoroacetate] was run?
Answer: The IC50 was no more than 500 nM.

Question: What about the IC50 [2] of the same molecule?
Answer: The IC50 was 1000 to 30000 nM.

Question: What does the source list for `NCc1ccnc(S(=O)(=O)C[C@@H]2C[C@H](c3ccccc3F)CN2S(=O)(=O)N2CCOCC2)c1` (racemic) [Example 203, cis-(2-(((4-(2-fluorophenyl)-1-(morpholinosulfonyl)pyrrolidin-2-yl)methyl)sulfonyl)pyridin-4-yl)methanamine 2,2,2-trifluoroacetate]?
Answer: IC50 [1]: ≤ 500 nM; IC50 [2]: 1000 to 30000 nM

Question: How did the IC50 [1] turn out when `NCc1ccnc(S(=O)(=O)C[C@@H]2C[C@H](c3ccc(F)cc3)CN2S(=O)(=O)N2CCOCC2)c1` (racemic) [Example 204, cis-(2-(((4-(4-fluorophenyl)-1-(morpholinosulfony1)pyrrolidin-2-yl)methyl)sulfonyl)pyridin-4-yl)methanamine 2,2,2-trifluoroacetate] was run?
Answer: Its IC50 is no more than 500 nM.

Question: And the IC50 [2]?
Answer: Its IC50 is 1000 to 30000 nM.

Question: `NCc1ccnc(S(=O)(=O)C[C@@H]2C[C@H](c3ccc(F)cc3)CN2S(=O)(=O)N2CCS(=O)(=O)CC2)c1` (racemic) [Example 206, cis-4-((2-(((4-(Aminomethyl)pyridin-2-yl)sulfonyl)methyl)-4-(4-fluorophenyl)pyrrolidin-1-yl)sulfonyl)thiomorpholine 1,1-dioxide 2,2,2-trifluoroacetate] was tested. Which IC50 [1] did it give?
Answer: The IC50 was no more than 500 nM.

Question: And the IC50 [2]?
Answer: Its IC50 is 1000 to 30000 nM.

Question: How did the IC50 [1] turn out when `NCc1ccc(S(=O)(=O)C[C@@H]2C[C@H](c3ccccc3F)CN2S(=O)(=O)N2CCOCC2)s1` (racemic) [Example 207, cis-(5-(((4-(2-Fluorophenyl)-1-(morpholinosulfonyl)pyrrolidin-2-yl)methyl)sulfonyl)thiophen-2-yl)methanamine 2,2,2-trifluoroacetate] was run?
Answer: The IC50 was no more than 500 nM.

Question: And the IC50 [2]?
Answer: The IC50 was no more than 500 nM.

Question: For `NCc1ccc(S(=O)(=O)C[C@@H]2C[C@H](c3ccc(F)cc3)CN2S(=O)(=O)N2CCOCC2)s1` (racemic) [Example 208, cis-(5-(((4-(4-Fluorophenyl)-1-(morpholinosulfonyl)pyrrolidin-2-yl)methyl)sulfonyl)thiophen-2-yl)methanamine 2,2,2-trifluoroacetate], which IC50 [1] is on record?
Answer: Its IC50 is no more than 500 nM.

Question: What about the IC50 [2] of the same molecule?
Answer: The IC50 was no more than 500 nM.

Question: `NCc1ccc(S(=O)(=O)C[C@@H]2C[C@H](c3ccc(F)cc3)CN2S(=O)(=O)N2CCS(=O)(=O)CC2)s1` (racemic) [Example 210, cis-4-((2-(((5-(Aminomethyl)thiophen-2-yl)sulfonyl)methyl)-4-(4-fluorophenyl)pyrrolidin-1-yl)sulfonyl)thiomorpholine 1,1-dioxide 2,2,2-trifluoroacetate] was tested. Which IC50 [1] did it give?
Answer: Its IC50 is no more than 500 nM.

Question: What about the IC50 [2] of the same molecule?
Answer: Its IC50 is 1000 to 30000 nM.

Question: For `NCc1ccnc(OC[C@@H]2C[C@H](c3ccc(F)cc3)CN2S(=O)(=O)N2CCOCC2)c1` (racemic) [Example 212, cis-(2-((4-(4-Fluorophenyl)-1-(morpholinosulfonyl)pyrrolidin-2-yl)methoxy)pyridin-4-yl)methanamine 2,2,2-trifluoroacetate], which IC50 [1] is on record?
Answer: The IC50 was no more than 500 nM.

Question: And the IC50 [2]?
Answer: The IC50 was 1000 to 30000 nM.

Question: How did the IC50 [1] turn out when `NCc1ccnc(OC[C@@H]2C[C@H](c3ccc(F)cc3)CN2S(=O)(=O)N2CCS(=O)(=O)CC2)c1.O=C(O)C(F)(F)F` (racemic) [Example 214, cis-((2-(((4-(Aminomethyl)pyridin-2-yl)oxy)methyl)-4-(4-fluorophenyl)pyrrolidin-1-yl)sulfonyl)thiomorpholine 1,1-dioxide 2,2,2-trifluoroacetate] was run?
Answer: The IC50 was no more than 500 nM.

Question: What about the “Activity Range LOX” value [2] of the same molecule?
Answer: Its value is “Inactive”.

Question: Which results are given for `NCc1cccc(OC[C@@H]2C[C@H](c3ccc(F)cc3)CN2S(=O)(=O)N2CCOCC2)c1.O=C(O)C(F)(F)F` (racemic) [Example 216, cis-(3-((4-(4-Fluorophenyl)-1-(morpholinosulfonyl)pyrrolidin-2-yl)methoxy)phenyl)methanamine 2,2,2-trifluoroacetate]?
Answer: IC50 [1]: 500 to 1000 nM; Activity Range LOX [2]: Inactive

Question: For `NCc1cccc(OC[C@@H]2C[C@H](c3ccc(F)cc3)CN2S(=O)(=O)N2CCS(=O)(=O)CC2)c1` (racemic) [Example 218, cis-4-((2-((3-(Aminomethyl)phenoxy)methyl)-4-(4-fluorophenyl)pyrrolidin-1-yl)sulfonyl)thiomorpholine 1,1-dioxide], which IC50 [1] is on record?
Answer: Its IC50 is no more than 500 nM.

Question: And the IC50 [2]?
Answer: The IC50 was 1000 to 30000 nM.
